Reference: patent US20230399661A1, “SHUTTLE AGENT PEPTIDES OF MINIMAL LENGTH AND VARIANTS THEREOF ADAPTED FOR TRANSDUCTION OF CAS9-RNP AND OTHER NUCLEOPROTEIN CARGOS” (priority 2020, published 2023)

How the values were obtained:
Assay type in all cases: cell-based, Human
HeLa cells [1] = assay: GFP-NLS transduction in presence of Cas9-RNP complex coated with small molecules; settings: shuttle agent FSD250, up to 10 mM of the small molecule
Method: HeLa cells were plated (20 000 cells/well) in a 96 well-plate the day prior to the experiment in DMEM containing 10% FBS. The Cas9-RNP complex coated with small molecules was prepared by mixing a Cas9-NLS recombinant protein (5 μM) complexed with a crRNA/tracrRNA (4 μM) targeting the beta-2 microglobulin (B2M) gene with 0, 100 nM, 1 μM, 10 μM, 100 μM, 1 mM or 10 mM of either 1,3-diaminoguanidine monohydrochloride, 3,5-diamino-1,2,4-triazole, guanidine hydrochloride or L-arginine amide dihydrochloride. The Cas9 RNP complex coated with small molecules was completed to […] with PBS. The delivery mix was prepared by mixing a synthetic peptide shuttle agent (10 μM), the GFP-NLS (10 μM) with or without the Cas9 RNP complex coated or not with small molecules and completed to 50 μL with phosphate-buffered saline PBS. […] Cells were then analyzed by flow cytometry.
Hypothesizing that the inhibitory effect of the sgRNA was due to the negatively charged phosphate backbone of the RNA, we attempted to neutralize the negative charges by coating the Cas9-RNP complexes with small positively charged molecules prior to transduction. Delivery of GFP in HeLa cells in the presence of Cas9-RNP was assessed in the presence of small positively charged molecules such as 1,3-diaminoguanidine monohydrochloride; 3,5-diamino-1,2,4-triazole; guanidine hydrochloride; or L-arginine amide dihydrochloride.

CFF-16HBEge cells [2] = assay: Cas9-RNP delivery, B2M genome editing; settings: for genome editing (Cas9-RNP): NGS, compared to non-treated cells; for genome editing with Cas9-RNP as cargo: B2M knockout, versus non-treated negative control
Method: HeLa cells were plated (10 000 cells/well) in a 96 well-plate the day prior to the experiment in DMEM containing 10% FBS. CFF-16HBEge cells were plated (10 000 cells/well) in a 96 well-plate the day prior to the experiment in Alpha-MEM containing 10% FBS.
(§1) For Cas9-RNP or ABE-Cas9-RNP transduction, a mix of Cas9-NLS or ABE-Cas9 recombinant protein (2.5 μM) complexed with a crRNA/tracrRNA (2 μM) targeting the beta-2 microglobulin (B2M) gene were co-incubated with 10-20 μM of synthetic peptide shuttle agent in a final volume of 50 μL completed with PBS. Cells were washed once with PBS and the shuttle/Cas9-RNP complex was added to the cells for and incubated for 60 to 90 seconds. Then 100 μL of DMEM (HeLa) or Alpha-MEM (CFF-16HBEge) containing 10% FBS was added to the mix. Cells were then immediately washed once with PBS and incubated in DMEM (HeLa) or Alpha-MEM (CFF-16HBEge) containing 10% FBS.
Genome editing events resulting in the absence of B2M protein (knockout) at the cell surface were determined by flow cytometry 6 days post-transduction. Cells were washed once with PBS and incubated with the anti-B2 microglobulin antibody (PE conjugated) (0.5 μL of anti-B2M-PE in […] 0.5% BSA/PBS) for 45 minutes at room temperature. Cells were washed twice with PBS and detached with 50 µL of Trypsin-EDTA for 10 minutes at 37° C. then inactivated by adding 100 μL of media containing 10% FBS. The percentage of knockout cells (cells without B2M antibody signal) was determined by flow cytometry.
A similar genome editing experiment as in Example 6 was performed in the Human Bronchial Epithelial cell line model of cystic fibrosis, CFF-16HBEge.
(§2) Further transduction experiments in CFF-16HBEge cells were performed to compare the ability of shuttle agents to deliver functional Cas9-RNP genome editing versus ABE-Cas9-RNP base editing complexes. Variants of the shuttle agent FSD10 (FIG. 8A) were tested in parallel, and genome editing/base editing results as evaluated by next-generation sequencing (NGS) are shown in FIGS. 8B and 8C for Cas9-RNP and ABE-Cas9-RNP, respectively.

CFF-16HBEge cells [3] = assay: ABE-Cas9-RNP delivery, base editing evaluated by next-generation sequencing; settings: NGS, compared to non-treated cells
Method: as §1, §2

HeLa cells [4] = assay: GFP-NLS transduction in the presence or absence of Cas9-RNP complex, flow cytometry; design: GFP transduction efficiency: concentration or dose not given beside the values; settings: for resistance/sensitivity of GFP transduction to inhibition by Cas9-RNP: presence vs absence of Cas9-RNP
Method: HeLa cells were plated (20 000 cells/well) in a 96 well-plate the day prior to the experiment in DMEM containing 10% FBS. A mix was prepared containing a synthetic peptide shuttle agent (10-30 μM), the GFP-NLS (10 μM) with or without a Cas9-NLS recombinant protein (2.5 μM) complexed with a crRNA/tracrRNA (2 μM) targeting the beta-2 microglobulin (B2M) gene and completed to 50 μL with PBS. Cells were washed once with PBS and the shuttle/GFP-NLS/Cas9-RNP mix was added to the cells and incubated for one minute. Then 100 μL DMEM containing 10% FBS was added to the mix. Cells were then immediately washed once with PBS and incubated in DMEM containing 10% FBS for two hours. Cells were the analyzed by flow cytometry.
To better understand the inhibitory effect of Cas9-RNP on shuttle agent transduction activity, HeLa cells were incubated with different peptides/shuttle agents and GFP cargo, in the presence or absence of Cas9-RNP, and delivery of GFP was assessed by flow cytometry, as described in Example 1. […] For some shuttle agents, the effect was particularly striking. For example, the GFP transduction efficiency for FSD268 decreased from 92% to 29%, the GFP transduction efficiency for FSD250 decreased from 83% to 13%, the GFP transduction efficiency for FSD10 decreased from 76% to 22%, and the GFP transduction efficiency for FSD395 decreased from 91% to 17%. […] Structure-activity relationships were explored further by repeating the above transduction experiments with shuttle agent variants sharing the same “core” amphipathic cationic alpha helical region as FSD10-15 (FIG. 4A), CM18 (FIG. 4B), and FSD356 (FIG. 4C).

RH-30 cells = assay: PMO-FITC transduction in the presence of sgRNA spiked in the medium, flow cytometry; settings: 5 μM shuttle agent, 6 μM PMO-FITC, 2 μg of sgRNA (4 μg/mL)
Source text: Nuclear delivery of Cas9-sgRNA complexes (hereinafter Cas9-RNP) via first- and second-generation synthetic peptide shuttle agents generally occurs less efficiently than delivery of a Cas9 proteinaceous cargo alone (i.e., without its corresponding sgRNA; see Krishnamurthy et al., 2019, supplementary FIG. 6). The negative effect of the sgRNA (without Cas9) on shuttle agent-mediated transduction of a fluorescently-labelled charge-neutral polynucleotide analog cargo (phosphorodiamidate morpholino oligomer (PMO)) is also shown in FIG. 2A. Briefly, RH-30 cells (150,000 cells/well in 24-well dish) were contacted with a delivery mix containing 6 μM of PMO-FITC and 5 μM of the synthetic peptide shuttle agent FSD250 for 2 minutes in RPMI, in the presence of increasing amounts of sgRNA spiked in the medium. Cells were then washed, incubated in complete medium and then collected for analysis by flow cytometry after 1 h.

HeLa cells [5] = assay: GFP or PI delivery by short/truncated shuttle agents, flow cytometry; settings: GFP or PI cargo
Method: HeLa cells were plated (20 000 cells/well) in a 96 well-plate the day prior to the experiment in DMEM containing 10% FBS. Each delivery mix comprising a synthetic peptide shuttle agent (10-30 μM) and GFP-NLS (10 μM) was prepared and completed to 50 μL with RPMI 1640 media. Cells were washed once with phosphate-buffered saline (PBS) and the shuttle/GFP-NLS mix was added to the cells and incubated for five minutes. Then 100 μL DMEM containing 10% FBS was added to the mix. Cells were then immediately washed once with PBS and incubated in DMEM containing 10% FBS for two hours. Cells were then analyzed by flow cytometry.
HeLa cells were plated (20 000 cells/well) in a 96 well-plate the day prior to the experiment in DMEM containing 10% FBS. […] Cells were then analyzed by flow cytometry.
To test the transduction activity of short/truncated synthetic shuttle agents (e.g., generally having less than 20 amino acids), HeLa cells were incubated with control peptides and N-terminal shuttle agent fragments of different lengths and delivery of GFP or PI was assessed by flow cytometry as described in Example 1. […] The Overall Delivery Factor represents a single number that accounts for the toxicity of each shuttle agent/peptide, as well as its ability to deliver GFP and PI, and was calculated as follows: […]

| Compound | genome editing with Cas9-RNP as cargo (CFF-16HBEge cells [2]) | GFP transduction efficiency (HeLa cells [4]; absence of Cas9-RNP) [%] | GFP transduction efficiency (HeLa cells [4]; presence of Cas9-RNP) [%] | resistance/sensitivity of GFP transduction to inhibition by Cas9-RNP (HeLa cells [4]) | also measured |
| --- | --- | --- | --- | --- | --- |
| Cl.N=C(NN)NN [1,3-diaminoguanidine monohydrochloride] |  |  |  |  | GFP transduction activity and Mean GFP delivery Scores in presence of Cas9-RNP coated with charge-neutralizing agent (HeLa cells [1]): significantly inhibited |
| FSD10-Cter: negative control peptide consisting of the C-terminal cationic portion of FSD10 alone (YARALRRQARTG; FSD10-Cter) |  |  |  |  | genome editing (Cas9-RNP) (CFF-16HBEge cells [2]): did not exhibit any detectable genome editing; base editing (ABE-Cas9-RNP) (CFF-16HBEge cells [3]): did not exhibit any detectable genome editing or base editing |
| Linker-(FSD10-Cter)-Linker: negative control peptide: C-terminal cationic portion of FSD10 flanked by glycine/serine-rich linkers (GGSGGGSYARALRRQARTGGGSGGGS; Linker-(FSD10-Cter)-Linker) |  |  |  |  | genome editing (Cas9-RNP) (CFF-16HBEge cells [2]): did not exhibit any detectable genome editing; base editing (ABE-Cas9-RNP) (CFF-16HBEge cells [3]): did not exhibit any detectable genome editing or base editing |
| FSD10: synthetic peptide shuttle agent; FSD10-15 core, glycine/serine-rich linker and second cationic domain (KWKLARAFARAIKKLGGSGGGSYARALRRQARTG; FSD10) | failed to show any increase in genome editing | 76 | 22 | more sensitive to inhibition by Cas9-RNP |  |
| FSD322: synthetic peptide shuttle agent (KWKLAKAWSRALKLWGGSGGGSARAQARQA; FSD322) | failed to show any increase in genome editing |  |  |  |  |
| FSD397: synthetic peptide shuttle agent (KLKLAKALAKALKKLGGSGGGSQAKAQAKQAK; FSD397) | failed to show any increase in genome editing |  |  |  |  |
| FSD250: synthetic peptide shuttle agent; FSD446 with C-terminal segment replaced with a cationic segment (KWKLLKLWSRLLKLWGGSGGGSARAARQAR; FSD250) |  | 83 | 13 |  | cargo transduction efficiency (PMO-FITC) (RH-30 cells): reduced cargo transduction efficiency |
| FSD374: core amphipathic cationic domain (as FSD174) flanked by short segments of non-cationic hydrophilic residues (GGSGGGSLLKIWSRLIKIWTQGRRLGGSGGGS; FSD374) | significant genome editing |  |  | virtually the same GFP transduction efficiency in the presence or absence of Cas9-RNP |  |
| FSD395: synthetic peptide shuttle agent (KLKLLKLLLKLLKKLGGSGGGSQAKAQAKQAK; FSD395) | failed to show any increase in genome editing | 91 | 17 |  |  |
| CM18: CM series peptide, 18 amino acids long; endosome leakage domain in some first generation shuttle agents (KWKLFKKIGAVLKVLTTG; CM18) [reference compound] |  | 32 | 28 | more resistant | transduction activity (HeLa cells [5]): transduction activity was observed; GFP delivery score (HeLa cells [4]; FIGS. 3 and 4B, presence or absence of Cas9-RNP not stated): 1.8 |
